Assay [1] addresses T1, recombinant human STIM1 and Orai1 (HEK-293 cells) (Homo sapiens, UniProt Q96D31).
T1 construct: expressed in transfected cells; host or cells: HEK-293 cells stably expressing both proteins
As to the kind of experiment: Fluorescence-based assay of store-operated calcium entry in Orai1/STIM1 stable cells. It counts as cell-based. On the set-up: key to Orai1/STIM1 (IC50, μmol): A < 0.6 μmol; 0.6 μmol ≦ B ≦ 1.2 μmol; C > 1.2 μmol; — = no fit. The following applies: for IC50: FLIPR fluo-4, read-out: Orai1/STIM1 (IC50, μmol); for Orai1/STIM1 (IC50, μmol): FLIPR fluo-4. On the procedure: A. Fluorescence-Based Assay of Store-Operated Calcium Entry in Orai1/STIM1 Stable Cells.
Cells stably expressing recombinant human STIM1 and Orai1 are generated by transfecting a human Orai1 expression plasmid (pcDNA3.1-Orai1-cmyc) into HEK-293 cells stably overexpressing human STIM1 (Roos et al. 2005 JCB 169(3): 435-445). Colonies of cells stably expressing both STIM1 and Orai1 proteins are selected and then subcloned by limiting dilution. Cells were cultured at 37° C./6% CO2 in complete medium with 10% FBS and appropriate selection markers.
The day prior to performing the assay Orai1/STIM1 stable cells are plated in 50 μL of complete medium at 90-95% confluence in a 384 well plate. Cells are grown at 37° C./6% CO2 overnight. On the day of the assay, 1.5 μM fluo-4-AM (Invitrogen) in complete medium is added to the cells, which are then incubated for 1 hour at RT. Cells are washed once in Ca^2+-free HBSS (Hank's buffered saline solution) and 35 μl of Ca^2+-free HBSS is added to each well. Test compounds are added to wells in a 10 μL Ca^2+-free HBSS solution, prepared at 4.5× the desired final concentration, and incubated for 30 minutes at RT. The initial baseline fluorescence signal is then measured with a FLIPR^384 (Molecular Devices) plate reader. Calcium entry is initiated by adding 5 μl of 10× CaCl2 (10 mM) in HBSS, and changes in cellular fluorescence are measured with the FLIPR^384 plate reader. In each well, the magnitude of the fluorescence signal as a result of calcium entry into the cell is determined by calculating the difference between the peak fluorescence signal measured after calcium addition and the initial baseline fluorescence signal (designated Peak-Basal). IC50 values are typically calculated as the concentration that inhibited 50% of the Peak-Basal signal (Table A).

The test system of assay [2] is store-operated calcium entry in RBL-2H3 cells. As to the kind of experiment: Fluorescence-based assay of store-operated calcium entry in RBL-2H3 cells. The note with it: Rattus norvegicus, thapsigargin, FLIPR Fluo-4, read-out: RBL-2H3 (IC50, μmol). It is filed as cell-based. On the procedure:
B. Fluorescence-Based Assay of Store-Operated Calcium Entry in RBL-2H3 Cells.
RBL-2H3 cells are obtained from ATCC and maintained in complete medium with 10% FBS at 37° C./6% CO2.
The day prior to performing the assay, RBL-2H3 cells are plated in 50 μL of complete medium in a 384 well plate. Cells are grown at 37° C./6% CO2 overnight and grow to 50-60% confluence by the next day. On the assay day, 1.5 μM Fluo-4-AM dye (Invitrogen) in complete medium is added and incubated for 1 hour at RT. Cells are washed twice in Ca^2+-free HBSS buffer and 35 μL Ca^2+-free HBSS buffer is added to each well. 10 μL of a test compound prepared in a Ca^2+-free HBSS solution at 4.5× of the desired concentration is added to a well and incubated for 5 minutes at RT. 10 μL of thapsigargin prepared in a Ca^2+-free HBSS solution at 5.5× of the desired concentration (5.5 uM) is added to each well and incubated for an additional 25 minutes. The initial baseline fluorescence signal is measured with a FLIPR^384 (Molecular Devices) plate reader. 5 μL of 12× calcium in HBSS (12 mM) is added and changes in cellular fluorescence are measured with the FLIPR^384 plate reader. In each well, the change in the fluorescent signal as a function of time due to calcium entry into the cell is determined by calculating the difference between the fluorescent signal measured 7 seconds after calcium addition and the initial baseline fluorescence signal at time zero (t=0). This parameter is designated Upslope. The IC50 value is calculated as the concentration at which 50% of the Upslope is inhibited.

T1 sequence (Q96D31 whole entry): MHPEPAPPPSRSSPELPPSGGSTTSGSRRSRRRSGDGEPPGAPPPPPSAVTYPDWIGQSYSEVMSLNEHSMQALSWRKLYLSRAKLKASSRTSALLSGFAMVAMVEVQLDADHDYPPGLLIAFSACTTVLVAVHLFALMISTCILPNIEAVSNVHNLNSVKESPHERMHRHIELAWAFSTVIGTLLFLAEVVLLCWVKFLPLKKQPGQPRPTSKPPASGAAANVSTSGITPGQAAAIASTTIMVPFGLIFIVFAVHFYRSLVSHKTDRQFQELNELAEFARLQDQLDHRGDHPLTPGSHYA

Regarding `Cn1cccc1C(=O)Nc1ccc(-c2cc3c(cc2Cl)OC(F)(F)O3)cn1` [Example 1, N-(5-(6-chloro-2,2-difluorobenzo[d][1,3]dioxol-5-yl)pyridin-2-yl)-1-methyl-1H-pyrrole-2-carboxamide], the IC50 in assay [1] and in assay [2] was 600 to 1200 nM in each case.

Turning to `Cc1nn(C)c(C(=O)Nc2ccc(-c3cc4c(cc3Cl)OC(F)(F)O4)cn2)c1Cl` [Example 2, 4-chloro-N-(5-(6-chloro-2,2-difluorobenzo[d][1,3]dioxol-5-yl)pyridin-2-yl)-1,3-dimethyl-1H-pyrazole-5-carboxamide], the IC50 in assay [1] and in assay [2] was over 1200 nM throughout.

As for `Cn1nc(C(F)(F)F)c(Cl)c1C(=O)Nc1ccc(-c2cc3c(cc2Cl)OC(F)(F)O3)cn1` [Example 3, 4-chloro-N-(5-(6-chloro-2,2-difluorobenzo[d][1,3]dioxol-5-yl)pyridin-2-yl)-1-methyl-3-(trifluoromethyl)-1H-pyrazole-5-carboxamide], the “Orai1/STIM1 (IC50, μmol)” value in assay [1] was “—”. Moreover, the IC50 in assay [2] was under 600 nM.

As for `Cn1ncc(C(=O)Nc2ccc(-c3cc4c(cc3Cl)OC(F)(F)O4)cn2)c1C(F)(F)F` [Example 4, N-(5-(6-chloro-2,2-difluorobenzo[d][1,3]dioxol-5-yl)pyridin-2-yl)-1-methyl-5-(trifluoromethyl)-1H-pyrazole-4-carboxamide], the “Orai1/STIM1 (IC50, μmol)” value in assay [1] is listed as “—”. Moreover, in assay [2], the IC50 was over 1200 nM.

`Cc1onc(C(=O)Nc2ccc(-c3cc4c(cc3Cl)OC(F)(F)O4)cn2)c1C` [Example 5, N-(5-(6-chloro-2,2-difluorobenzo[d][1,3]dioxol-5-yl)pyridin-2-yl)-4,5-dimethylisoxazole-3-carboxamide]: in assay [1], the “Orai1/STIM1 (IC50, μmol)” value is “—”. The IC50 in assay [2] fell in the range of 600 to 1200 nM.

Regarding `CCn1nc(C)cc1C(=O)Nc1ccc(-c2cc3c(cc2Cl)OC(F)(F)O3)cn1` [Example 6, N-(5-(6-chloro-2,2-difluorobenzo[d][1,3]dioxol-5-yl)pyridin-2-yl)-1-ethyl-3-methyl-1H-pyrazole-5-carboxamide], the IC50 in assay [1] and in assay [2] was over 1200 nM throughout.

In the case of `Cc1cc(C(=O)Nc2ccc(-c3cc4c(cc3Cl)OC(F)(F)O4)cn2)n(C)n1` [Example 7, N-(5-(6-chloro-2,2-difluorobenzo[d][1,3]dioxol-5-yl)pyridin-2-yl)-1,3-dimethyl-1H-pyrazole-5-carboxamide], the IC50 in assay [1] is 600 to 1200 nM; in assay [2], over 1200 nM.

`Cn1cc(Cl)c(C(=O)Nc2ccc(-c3cc4c(cc3Cl)OC(F)(F)O4)cn2)n1` [Example 8, 4-chloro-N-(5-(6-chloro-2,2-difluorobenzo[d][1,3]dioxol-5-yl)pyridin-2-yl)-1-methyl-1H-pyrazole-3-carboxamide]: the IC50 in assay [1] and in assay [2] was over 1200 nM throughout.

As to `Cn1ncc(Cl)c1C(=O)Nc1ccc(-c2cc3c(cc2Cl)OC(F)(F)O3)cn1` [Example 9, 4-chloro-N-(5-(6-chloro-2,2-difluorobenzo[d][1,3]dioxol-5-yl)pyridin-2-yl)-1-methyl-1H-pyrazole-5-carboxamide], the results for the IC50 in assay [1] and in assay [2] were 600 to 1200 nM and under 600 nM, respectively.

`Cc1oncc1C(=O)Nc1ccc(-c2cc3c(cc2Cl)OC(F)(F)O3)cn1` [Example 10, N-(5-(6-chloro-2,2-difluorobenzo[d][1,3]dioxol-5-yl)pyridin-2-yl)-5-methylisoxazole-4-carboxamide]: the “Orai1/STIM1 (IC50, μmol)” value in assay [1] is “—”.

`Cc1noc(C)c1C(=O)Nc1ccc(-c2cc3c(cc2Cl)OC(F)(F)O3)cn1` [Example 11, N-(5-(6-chloro-2,2-difluorobenzo[d][1,3]dioxol-5-yl)pyridin-2-yl)-3,5-dimethylisoxazole-4-carboxamide]: the IC50 in assay [1] and in assay [2] was under 600 nM throughout.

As for `CCn1nccc1C(=O)Nc1ccc(-c2cc3c(cc2Cl)OC(F)(F)O3)cn1` [Example 12, N-(5-(6-chloro-2,2-difluorobenzo[d][1,3]dioxol-5-yl)pyridin-2-yl)-1-ethyl-1H-pyrazole-5-carboxamide], the IC50 in assay [1] and in assay [2] was 600 to 1200 nM in each case.

Take `O=C(Nc1ccc(-c2cc3c(cc2Cl)OC(F)(F)O3)cn1)c1ccnn1C(F)F` [Example 13, N-(5-(6-chloro-2,2-difluorobenzo[d][1,3]dioxol-5-yl)pyridin-2-yl)-1-(difluoromethyl)-1H-pyrazole-5-carboxamide]: the IC50 in assay [1] is 600 to 1200 nM; in assay [2], over 1200 nM.

As for `CCc1nnsc1C(=O)Nc1ccc(-c2cc3c(cc2Cl)OC(F)(F)O3)cn1` [Example 14, N-(5-(6-chloro-2,2-difluorobenzo[d][1,3]dioxol-5-yl)pyridin-2-yl)-4-ethyl-1,2,3-thiadiazole-5-carboxamide], the IC50 in assay [1] and in assay [2] was under 600 nM each time.

Take `Cc1nscc1C(=O)Nc1ccc(-c2cc3c(cc2Cl)OC(F)(F)O3)cn1` [Example 15, N-(5-(6-chloro-2,2-difluorobenzo[d][1,3]dioxol-5-yl)pyridin-2-yl)-3-methylisothiazole-4-carboxamide]: the IC50 in assay [1] and in assay [2] was under 600 nM throughout.

Turning to `Cc1nc(C(=O)Nc2ccc(-c3cc4c(cc3Cl)OC(F)(F)O4)cn2)c(C(F)(F)F)o1` [Example 19, N-(5-(6-chloro-2,2-difluorobenzo[d][1,3]dioxol-5-yl)pyridin-2-yl)-2-methyl-5-(trifluoromethyl)oxazole-4-carboxamide], the “Orai1/STIM1 (IC50, μmol)” value in assay [1] is “—”.

As to `Cc1nc(C)c(C(=O)Nc2ccc(-c3cc4c(cc3Cl)OC(F)(F)O4)cn2)o1` [Example 21, N-(5-(6-chloro-2,2-difluorobenzo[d][1,3]dioxol-5-yl)pyridin-2-yl)-2,4-dimethyloxazole-5-carboxamide], the IC50 in assay [1] was over 1200 nM.

On to `Cn1ncc(C(=O)Nc2cnc(-c3cc4c(cc3Cl)OC(F)(F)O4)cn2)c1C(F)(F)F` [Example 22, N-(5-(6-chloro-2,2-difluorobenzo[d][1,3]dioxol-5-yl)pyrazin-2-yl)-1-methyl-5-(trifluoromethyl)-1H-pyrazole-4-carboxamide], for which the “Orai1/STIM1 (IC50, μmol)” value in assay [1] was “—”.

For the compound `Cc1nn(C)c(C(=O)Nc2cnc(-c3cc4c(cc3Cl)OC(F)(F)O4)cn2)c1Cl` [Example 23, 4-chloro-N-(5-(6-chloro-2,2-difluorobenzo[d][1,3]dioxol-5-yl)pyrazin-2-yl)-1,3-dimethyl-1H-pyrazole-5-carboxamide], in assay [1], the “Orai1/STIM1 (IC50, μmol)” value is “—”.

On to `CCn1nc(C)cc1C(=O)Nc1cnc(-c2cc3c(cc2Cl)OC(F)(F)O3)cn1` [Example 26], for which the IC50 in assay [2] was over 1200 nM.

`Cn1cc(Cl)c(C(=O)Nc2cnc(-c3cc4c(cc3Cl)OC(F)(F)O4)cn2)n1` [Example 28, 4-chloro-N-(5-(6-chloro-2,2-difluorobenzo[d][1,3]dioxol-5-yl)pyrazin-2-yl)-1-methyl-1H-pyrazole-3-carboxamide]: the “Orai1/STIM1 (IC50, μmol)” value in assay [1] was “—”.

Take `Cc1oncc1C(=O)Nc1cnc(-c2cc3c(cc2Cl)OC(F)(F)O3)cn1` [Example 30, N-(5-(6-chloro-2,2-difluorobenzo[d][1,3]dioxol-5-yl)pyrazin-2-yl)-5-methylisoxazole-4-carboxamide]: in assay [1], the “Orai1/STIM1 (IC50, μmol)” value was “—”.

In the case of `Cc1cc2c(cc1-c1cnc(NC(=O)c3c(Cl)c(C)nn3C)cn1)OC(F)(F)O2` [Example 36, 4-chloro-N-(5-(2,2-difluoro-6-methylbenzo[d][1,3]dioxol-5-yl)pyrazin-2-yl)-1,3-dimethyl-1H-pyrazole-5-carboxamide], in assay [1], the “Orai1/STIM1 (IC50, μmol)” value is “—”.
